Source: PubChem BioAssay AID292 (DTP/NCI, 2004)
Several values for one entry are separate records, joined by “and”; a condition that tells them apart may be missing. Identical values can stand only once. Inconclusive results and toxic doses are left out.

Tested on: B6C3F1 mice, ip Sarcoma M5076, median survival T/C
Assay: NCI In Vivo Anticancer Drug Screen. Data for tumor model Sarcoma M5076 (intraperitoneal) in B6C3F1 mice
Details: endpoint: median survival time, higher = longer survival
Method in brief: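 Antitumour effect is judged in tumour-bearing mice by comparing survival after compound dosing against vehicle-only animals, reported as T/C.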

[1] = dose: 37.5 mg/kg/injection, schedule: Q04DX004 (ip), vehicle: Klucel (hydroxypropylcellulose) (HPC)
[2] = dose: 75.0 mg/kg/injection, schedule: Q04DX004 (ip), vehicle: Klucel (hydroxypropylcellulose) (HPC)
[3] = dose: 150.0 mg/kg/injection, schedule: Q04DX004 (ip), vehicle: Klucel (hydroxypropylcellulose) (HPC)
[4] = dose: 12.5 mg/kg/injection, schedule: Q04DX004 (ip), vehicle: saline with Tween-80
[5] = dose: 25.0 mg/kg/injection, schedule: Q04DX004 (ip), vehicle: saline with Tween-80
[6] = dose: 50.0 mg/kg/injection, schedule: Q04DX004 (ip), vehicle: saline with Tween-80
[7] = dose: 100.0 mg/kg/injection, schedule: Q04DX004 (ip), vehicle: saline with Tween-80
[8] = dose: 50.0 mg/kg/injection, schedule: Q04DX004 (ip), vehicle: Klucel (hydroxypropylcellulose) (HPC)
[9] = dose: 400.0 mg/kg/injection, schedule: Q04DX004 (ip), vehicle: Klucel (hydroxypropylcellulose) (HPC)
[10] = dose: 25.0 mg/kg/injection, schedule: Q04DX004 (ip), vehicle: Klucel (hydroxypropylcellulose) (HPC)
[11] = dose: 25.0 mg/kg/injection, schedule: Q04DX004 (ip), vehicle: saline
[12] = dose: 50.0 mg/kg/injection, schedule: Q04DX004 (ip), vehicle: saline
[13] = dose: 100.0 mg/kg/injection, schedule: Q04DX004 (ip), vehicle: saline

SMILES: O=C(NC(Cc1ccc(I)cc1)C(=O)O)c1ccc(Br)cc1 (configuration not stated)
- T/C (dose: 25.0 mg/kg/injection, schedule: Q04DX004 (ip), vehicle: sodium bicarbonate): 102 % of control
- T/C (dose: 50.0 mg/kg/injection, schedule: Q04DX004 (ip), vehicle: sodium bicarbonate): 105 % of control
- T/C (dose: 100.0 mg/kg/injection, schedule: Q04DX004 (ip), vehicle: sodium bicarbonate): 97 % of control
- T/C (dose: 200.0 mg/kg/injection, schedule: Q04DX004 (ip), vehicle: sodium bicarbonate): 104 % of control
- T/C (dose: 400.0 mg/kg/injection, schedule: Q04DX004 (ip), vehicle: sodium bicarbonate): 90 % of control

SMILES: COc1ccc(-n2c(SCC(=O)NC(=O)Nc3ccccc3)nc3c(Br)cc(Br)cc3c2=O)cc1
- T/C [1]: 91 % of control
- T/C [2]: 93 % of control
- T/C [3]: 89 % of control
- T/C (dose: 600.0 mg/kg/injection, schedule: Q04DX004 (ip), vehicle: Klucel (hydroxypropylcellulose) (HPC)): 90 % of control

SMILES: CO[C@@]12[C@H](COC(N)=O)C3=C(C(=O)C(C)=C(N)C3=O)N1C[C@@H]1N[C@@H]12
- T/C (dose: 0.25 mg/kg/injection, schedule: Q04DX004 (ip), vehicle: saline): 106 % of control
- T/C (dose: 0.5 mg/kg/injection, schedule: Q04DX004 (ip), vehicle: saline): 120 % of control and 121 % of control

SMILES: C/C(=N\NC(=S)N1CC2CCC(CC2)C1)c1cccc(C)n1
- T/C (dose: 6.25 mg/kg/injection, schedule: Q04DX004 (ip), vehicle: saline with Tween-80): 104 % of control and 107 % of control
- T/C [4]: 101 % of control and 106 % of control and 116 % of control
- T/C [5]: 104 % of control and 110 % of control and 115 % of control
- T/C [6]: 101 % of control and 107 % of control and 119 % of control

SMILES: C/C=C(\C)C(=O)OC1C(C)=C2C(C1OC(=O)CCCCC)C(C)(OC(C)=O)CC(OC(=O)CCC)C1(O)C2OC(=O)C1(C)O (configuration not stated)
- T/C (dose: 1.0 mg/kg/injection, schedule: Q04DX004 (ip), vehicle: Klucel (hydroxypropylcellulose) (HPC)): 97 % of control and 101 % of control
- T/C (dose: 2.0 mg/kg/injection, schedule: Q04DX004 (ip), vehicle: Klucel (hydroxypropylcellulose) (HPC)): 92 % of control and 101 % of control

SMILES: CC(=O)N1CN=C2Sc3ccccc3N2C1
- T/C (dose: 18.75 mg/kg/injection, schedule: Q04DX004 (ip), vehicle: Klucel (hydroxypropylcellulose) (HPC)): 102 % of control
- T/C [1]: 111 % of control
- T/C [2]: 103 % of control
- T/C [3]: 102 % of control

SMILES: COc1cccc2sc(-n3c(C)nc4ccccc4c3=O)nc12
- T/C (dose: 31.25 mg/kg/injection, schedule: Q04DX004 (ip), vehicle: Klucel (hydroxypropylcellulose) (HPC)): 109 % of control
- T/C (dose: 62.5 mg/kg/injection, schedule: Q04DX004 (ip), vehicle: Klucel (hydroxypropylcellulose) (HPC)): 94 % of control
- T/C (dose: 125.0 mg/kg/injection, schedule: Q04DX004 (ip), vehicle: Klucel (hydroxypropylcellulose) (HPC)): 93 % of control
- T/C (dose: 250.0 mg/kg/injection, schedule: Q04DX004 (ip), vehicle: Klucel (hydroxypropylcellulose) (HPC)): 94 % of control
- T/C (dose: 500.0 mg/kg/injection, schedule: Q04DX004 (ip), vehicle: Klucel (hydroxypropylcellulose) (HPC)): 95 % of control

SMILES: COc1c2c(c(O)c3c4c(c(C)cc13)C1OC3(C(OC)OC5CC(C)(O)C(OC6CC(C)(O)C(O)C(C)O6)C(C)O5)OC1C(OC)(O4)C31CO1)C(=O)C(O)CC2OC1CC(C)(O)C(OC(C)=O)C(C)O1 (configuration not stated)
- T/C (dose: 0.03 mg/kg/injection, schedule: Q04DX004 (ip), vehicle: saline): 120 % of control
- T/C (dose: 15.0 micrograms/kg/injection, schedule: Q04DX004 (ip), vehicle: saline): 105 % of control
- T/C (dose: 30.0 micrograms/kg/injection, schedule: Q04DX004 (ip), vehicle: saline): 115 % of control
- T/C (dose: 60.0 micrograms/kg/injection, schedule: Q04DX004 (ip), vehicle: saline): 111 % of control and 118 % of control
- T/C (dose: 120.0 micrograms/kg/injection, schedule: Q04DX004 (ip), vehicle: saline): 114 % of control
- T/C (dose: 240.0 micrograms/kg/injection, schedule: Q04DX004 (ip), vehicle: saline): 115 % of control

SMILES: NNC(=O)c1ccc(OCc2nc3ccccc3[nH]2)cc1
- T/C [5]: 99 % of control
- T/C [6]: 102 % of control
- T/C [7]: 101 % of control
- T/C (dose: 200.0 mg/kg/injection, schedule: Q04DX004 (ip), vehicle: saline with Tween-80): 106 % of control
- T/C (dose: 400.0 mg/kg/injection, schedule: Q04DX004 (ip), vehicle: saline with Tween-80): 97 % of control

SMILES: CCn1c2ccccc2c2c3ncc4cccn4c3ccc21
- T/C (dose: 37.5 mg/kg/injection, schedule: Q04DX004 (ip), vehicle: saline with Tween-80): 96 % of control
- T/C (dose: 75.0 mg/kg/injection, schedule: Q04DX004 (ip), vehicle: saline with Tween-80): 96 % of control
- T/C (dose: 150.0 mg/kg/injection, schedule: Q04DX004 (ip), vehicle: saline with Tween-80): 93 % of control
- T/C (dose: 300.0 mg/kg/injection, schedule: Q04DX004 (ip), vehicle: saline with Tween-80): 92 % of control
- T/C (dose: 600.0 mg/kg/injection, schedule: Q04DX004 (ip), vehicle: saline with Tween-80): 89 % of control

SMILES: CC(C)(C)c1cc(C2C(C#N)C(=O)NC(=O)C2C#N)cc(C(C)(C)C)c1O (configuration not stated)
- T/C [8]: 88 % of control
- T/C (dose: 100.0 mg/kg/injection, schedule: Q04DX004 (ip), vehicle: Klucel (hydroxypropylcellulose) (HPC)): 97 % of control
- T/C (dose: 200.0 mg/kg/injection, schedule: Q04DX004 (ip), vehicle: Klucel (hydroxypropylcellulose) (HPC)): 93 % of control
- T/C [9]: 95 % of control
- T/C (dose: 800.0 mg/kg/injection, schedule: Q04DX004 (ip), vehicle: Klucel (hydroxypropylcellulose) (HPC)): 97 % of control

SMILES: COc1ccc(CCN2C(=O)C(=O)N(C)C2=O)cc1OC
- T/C [10]: 89 % of control
- T/C [8]: 99 % of control
- T/C [9]: 92 % of control

SMILES: NC(=O)c1ccc[n+](Cc2c(Cl)cccc2Cl)c1
- T/C (dose: 12.5 mg/kg/injection, schedule: Q04DX004 (ip), vehicle: saline): 100 % of control
- T/C [11]: 99 % of control
- T/C [12]: 100 % of control
- T/C [13]: 96 % of control

SMILES: COc1ccc(C=C(C(=O)CCN(C)C)C(=O)CCN(C)C)cc1
- T/C [11]: 99 % of control
- T/C [12]: 101 % of control
- T/C [13]: 102 % of control
- T/C (dose: 200.0 mg/kg/injection, schedule: Q04DX004 (ip), vehicle: saline): 102 % of control

SMILES: CC/C(=C(\c1ccccc1)c1ccc(OCCN(C)C)cc1)c1ccccc1
- T/C (dose: 12.5 mg/kg/injection, schedule: Q04DX004 (ip), vehicle: Klucel (hydroxypropylcellulose) (HPC)): 101 % of control
- T/C [10]: 107 % of control
- T/C [8]: 89 % of control and 103 % of control

SMILES: Cc1ccc2c(c1)C1(C)OC(C=CC1=O)O2 (configuration not stated)
- T/C [10]: 96 % of control
- T/C [8]: 103 % of control

SMILES: NCCSC(C[N+](=O)[O-])c1ccccc1Cl (configuration not stated)
- T/C [4]: 90 % of control and 100 % of control
- T/C [5]: 92 % of control and 105 % of control
- T/C [6]: 95 % of control and 98 % of control
- T/C [7]: 109 % of control

SMILES: N=C(N)Sc1cc(O)ccc1O
- T/C (dose: 43.75 mg/kg/injection, schedule: Q04DX004 (ip), vehicle: saline with Tween-80): 110 % of control
- T/C (dose: 87.5 mg/kg/injection, schedule: Q04DX004 (ip), vehicle: saline with Tween-80): 109 % of control
- T/C (dose: 175.0 mg/kg/injection, schedule: Q04DX004 (ip), vehicle: saline with Tween-80): 111 % of control
- T/C (dose: 350.0 mg/kg/injection, schedule: Q04DX004 (ip), vehicle: saline with Tween-80): 110 % of control

SMILES: Nc1ncn(C2OC(CO)C(O)C2O)c(=O)n1 (configuration not stated)
- T/C (dose: 0.38 mg/kg/injection, schedule: Q01DX009 (ip), vehicle: saline): 100 % of control and 101 % of control
- T/C (dose: 0.75 mg/kg/injection, schedule: Q01DX009 (ip), vehicle: saline): 109 % of control and 114 % of control
- T/C (dose: 1.5 mg/kg/injection, schedule: Q01DX009 (ip), vehicle: saline): 112 % of control and 115 % of control
- T/C (dose: 25.0 mg/kg/injection, schedule: Q01DX009 (ip), vehicle: saline): 150 % of control
- T/C (dose: 50.0 mg/kg/injection, schedule: Q01DX009 (ip), vehicle: saline): 155 % of control and 159 % of control
- T/C (dose: 100.0 mg/kg/injection, schedule: Q01DX009 (ip), vehicle: saline): 172 % of control

SMILES: CC(=O)NC(CSC1=C2NC(=O)\C=C/C=C/C=C\C(C)C(O)CC(=O)/C(C)=C\CC(O)/C=C/C(C)C(O)C(C)C=C(C)C(=O)c3c(O)c(C)cc(c3C1=O)C2=O)C(=O)O (configuration not stated)
- T/C (dose: 1.25 mg/kg/injection, schedule: Q04DX004 (ip), vehicle: Klucel (hydroxypropylcellulose) (HPC)): 100 % of control
- T/C (dose: 2.5 mg/kg/injection, schedule: Q04DX004 (ip), vehicle: Klucel (hydroxypropylcellulose) (HPC)): 100 % of control
- T/C (dose: 5.0 mg/kg/injection, schedule: Q04DX004 (ip), vehicle: Klucel (hydroxypropylcellulose) (HPC)): 101 % of control
- T/C (dose: 10.0 mg/kg/injection, schedule: Q04DX004 (ip), vehicle: Klucel (hydroxypropylcellulose) (HPC)): 93 % of control
- T/C (dose: 20.0 mg/kg/injection, schedule: Q04DX004 (ip), vehicle: Klucel (hydroxypropylcellulose) (HPC)): 100 % of control
